Earlier results in patent US20070212386A1, “COATINGS FOR IMPLANTABLE MEDICAL DEVICES” (Sahajanand Medical Technologies Pvt. Ltd., priority 2006, published 2007).

Experiments:
[1] = general statement
[2] = system: collagen induced platelet aggregation; conditions: literature refs [2,5]

| solubility in water [1] | Structure (SMILES) | concentration preventing collagen induced platelet aggregation [2] |
| --- | --- | --- |
| practically insoluble in water | O=c1c(O)c(-c2ccc(O)c(O)c2)oc2cc(O)cc(O)c12 [Quercetin, 2-(3,4-dihydroxyphenyl)-3,5,7-trihydroxy-4H-1-benzopyran-4-one] |  |
| greater water solubility than genistein | O=c1c(-c2ccc(O)cc2)coc2cc(O[C@@H]3O[C@H](CO)[C@@H](O)[C@H](O)[C@H]3O)cc(O)c12 [Genistin] |  |
| practically insoluble in water | O=c1c(-c2ccc(O)cc2)coc2cc(O)cc(O)c12 [Genistein, 5,7-dihydroxy-3-(4-hydroxyphenyl)-4H-1-benzopyran-4-one] | more than 25 μM |
